In patent US20060246095A1, “Multiepitope polypeptides for cancer immunotherapy” (HADASIT MEDICAL RESEARCH SERVICES & DEVELOPMENT LTD., priority 2003, published 2006):

Experiments:
mice = conditions: cited from earlier work
[1] = system: peripheral blood lymphocytes of breast carcinoma patients; conditions: cited from earlier work
specific T cell clones = experiment: Recognition assay for peptide presentation by DC, statements on T cell clones overall; format: cell-based, human; conditions: MEP-transfected DC, Lactacystin 25 μM and 50 μM
Procedure: T cell clones were co-incubated with DC in flat 96-well plate for 24 hours. DC were plated immediately after their transfection or pulsing in 6 separated plates, in the presence of GM CSF and IL-4. 1×10^5 T cells were added to 1×10^5 pulsed or transfected DC. In the longitudinal study, T cell clones were added to the transfected/pulsed DC at the following time points: T0=immediately, +12=after 12 hours, 24, 36, 48 and 72 hours. Supernatants were collected after overnight incubation. Interferon gamma release assay was performed to evaluate T cell stimulation using the ELISA method, results are presented in pg/ml.
Lactacystin was added to DC at concentrations of 25 μM and 50 μM, 4 hours post transfection. DC were incubated with lactacystin for 70 minutes and then washed twice.
Responding T cells were added after washing the lactacystin and co-incubated. Supernatents were collected after 20 hours.
Efficiency of epitope presentation and stimulation of specific T cell clone proliferation were evaluated by comparing the specific T cell clones response to the DC transfected with the multiepitope, to DC that were pulsed with specific peptides or DC transfected with full length melanoma associated antigens (gp100 and MART-1), using the recognition assay. […]

Compound: BA46-7: peptide BA46-7 (GLQHWVPEL) of Lactadherin, SEQ ID NO: 28 (listed as Homo sapiens)
- specific CTL activity (mice): elicited specific CTL activity
- specific CTL activity [1]: elicited specific CTL activity

Compound: BA46-6: peptide BA46-6 (NLFETPVEA) of Lactadherin, SEQ ID NO: 27 (listed as Homo sapiens)
- specific CTL activity (mice): elicited specific CTL activity
- specific CTL activity [1]: elicited specific CTL activity

Compound: CC(=O)N[C@@H](CSC(=O)[C@]1([C@@H](O)C(C)C)NC(=O)[C@H](C)[C@@H]1O)C(=O)O [Lactacystin]
- effect of proteasomal inhibition on epitope expression (specific T cell clones): decreased the epitope expression of MEP-Mel to background level
